In patent US20250188618A1, “AMINO ACID DERIVATIVES AND SULFUR DERIVATIVES AS BIODEGRADABLE CORROSION INHIBITORS” (ChampionX LLC, priority 2023, published 2025):

Experiments:
[1] = Wheel box testing, corrosion inhibition persistence for batch applications; settings: 1% corrosion inhibitor active in 3% NaCl, 60° C., saturated CO2 at 1 atm, 96 hour, average of 2 runs; inhibitor in neutral form
Description: The corrosion inhibitors were tested using wheel box testing which is a screening method for measuring corrosion inhibition persistence for batch applications. Metal coupons are dip-coated in a solution of the inhibitor in neutral form (non-salt), then placed onto a wheel and immersed in corrosive solution. The wheel is rotated in the solution under desired conditions. At regular time intervals, the solution without inhibitor is replenished. At the conclusion of the test, corrosion rates are measured as a function of the mass loss of the metal coupons.

[2] = Bubble cell test, corrosion rate by linear polarization resistance (LPR); settings: during 2 hour pre-corrode, prior to the addition of corrosion inhibitor; CO2 saturated 3% NaCl brine 80% / hydrocarbon oil 20%, 65° C.
Description: The derivatized succinate corrosion inhibitors made according to Examples 1-5 were evaluated using bubble cell tests to assess corrosion performance using linear polarization resistance testing. The derivatized succinate corrosion inhibitors were combined with the sulfur synergist 2-mercaptoethanol in a solution so that the concentrations of corrosion inhibitor and 2-mercaptoethanol were 10% and 1% by weight, respectively. Methanol, isopropanol, water, and combinations thereof were used as solvents. Acids or bases were sometimes added either to form or neutralize salts of the inhibitors to influence their solubility. This solution was then dosed into the bubble cell at a concentration of 50 ppm, ultimately providing 5 ppm of corrosion inhibitor and 0.5 ppm of 2-mercaptoethanol. The bubble test simulates low flow areas where little or no mixing of water and oil occurs. The test was conducted using a mixed fluid composed of 80% by volume of synthetic brine composed of 3% sodium chloride and 20% of hydrocarbon oil.
The brine without inhibitor was first placed into kettles and purged with carbon dioxide for one hour resulting in carbon dioxide saturated brine. The brine was heated to 65° C., and electrodes were introduced into the de-aerated brine, followed by de-aerated oil, all of which was continually purged with carbon dioxide at 1 bar CO2 to saturate the brine for a 2 hour pre-corrode. The kettles were magnetically stirred at 100 revolutions per minute (rpm) for the duration of the test. The CO2 purge was switched to a blanket, the corrosion inhibitor solution was added, and the test timer started. Data were collected overnight for 15-hour test duration.
The corrosion rate was measured by Linear Polarization Resistance (LPR) techniques. The working electrode used was carbon steel (C1018 grade). The counter and reference electrodes were both Hastelloy. The electrodes were all cleaned and polished prior to testing. Corrosion rates were given in milli-inches per year (mpy), calculated from the current measured by LPR. Corrosion inhibition is compared to two known corrosion inhibitors: a cationic surfactant (alkylbenzyldimethylammonium chloride) and a Tall oil fatty acid (TOFA)-diethylenetriamine (DETA) imidazoline.
The bubble cell results provide a low shear screening designed for continuous application. The performance is measured as percent protection by comparing the initial corrosion rate during pre-corrode, prior to the addition of a corrosion inhibitor, to the final corrosion rate, measured 15 hours after corrosion inhibitor dosing.

| Compound | Wheel-Box, % Inhibition [1] [%] | Initial corrosion rate (mpy) [2] [mpy] |
| --- | --- | --- |
| 6,9-dioxa-3,12-diazatetradecane-1,2,13,14-tetracarboxylic acid, dioleyl ester [Example 10] | 42 | 157.2 |
| N-oleylaspartic acid, iso-C11-14-alkyl ester [Example 2] | – | 252.4 |
| CCCCCCCCCCCCSC(CC(=O)O)C(=O)[O-].[Na+] (centres unmarked) [Example 8, 2-(dodecylthio)succinic acid, monosodium salt] | – | 137.2 |
| 2-sulfosuccinic acid, iso-C11-14-alkyl ester, disodium salt [Example 6] | – | 186.9 |
| 2-(carboxymethylthio)succinic acid, iso-C11-14-alkyl ester, monosodium salt [Example 7] | – | 160.1 |
| alkylbenzyldimethylammonium chloride [Cationic surfactant control, reference compound] | – | 233.4 |
| N-(2-ethylhexyl)aspartic acid, C12-15-alkyl ester [Example 1] | – | 245.7 |
| CCCCCCCCCCCCOC(=O)CC1NCCN(CCN)C1=O (centres unmarked) [Example 9, (4-(2-aminoethyl)-3-oxo-2-piperazinyl)acetic acid, dodecyl ester] | – | 204.3 |
| N-(oleyl)aspartic acid, 2-ethylhexyl ester [Example 4] | 64 | 213.0 |
| N-(2-ethylhexyl)aspartic acid, 2-ethylhexyl ester [Example 3] | 56 | 248.8 |
| CCCCCCCC/C=C\CCCCCCCCN[C@@H](CC(=O)O)C(=O)[O-].[K+] [Example 5, N-(oleyl)aspartic acid, monopotassium salt] | – | 103.3 |
